Laboratory results from a compilation of properties of binary mixtures (doi:10.1007/s10953-017-0578-y).

Experiment: xn = mol fraction of the nth substance listed
Settings: 100 kPa

CNc1ccccc1 + CC[n+]1ccn(C)c1.F[B-](F)(F)F
speed of sound [m/s]
Settings | x2 = 0 | x2 = 0.1046 | x2 = 0.2048 | x2 = 0.3057 | x2 = 0.3985 | x2 = 0.5064 | x2 = 0.6045 | x2 = 0.6994 | x2 = 0.8005 | x2 = 0.9084
293.15 K | – | 1603.9 | 1617.6 | 1627.9 | 1632.7 | 1632.5 | – | 1627.7 | 1625.9 | 1627
303.15 K | – | 1568.9 | 1586.9 | – | 1603.8 | 1604.7 | 1604.1 | 1602.6 | 1601.3 | 1604
313.15 K | 1511.7 | – | – | 1567 | 1574.4 | 1576.1 | 1578.3 | 1577.9 | 1576.2 | 1579.4
323.15 K | 1476.4 | 1500.3 | 1523.6 | 1537.2 | 1545.6 | 1549 | – | 1551.6 | 1550.4 | 1553.3

CC[n+]1ccn(C)c1.F[B-](F)(F)F + CNc1ccccc1
x1 = 1
Settings | speed of sound [m/s]
293.15 K | 1632.6
303.15 K | 1609.5
313.15 K | 1586.2
323.15 K | 1563.4
